From US7642258B2 (Allergan, Inc., priority 2002, dated 2010)
Read-outs that look alike come from different tables or passages of the source.

How the values were obtained:
[1] = tested on: patients with glaucoma or ocular hypertension; assay: Clinical study: intraocular pressure (IOP) lowering, multicenter double-masked randomized parallel-group; type: in vivo; details: range over week 2, week 6 and month 3 (hours 0, 2, 7, 9)
Protocol: IOP (hours 0, 2, 7, and 9), patient satisfaction questionnaire, patient comfort of study medication questionnaire, pharmacoeconomic evaluation by investigator
All data were summarized with descriptive statistics, frequency tables, and/or data listings. Safety analyses included all patients who received at least 1 dose of study medication. Analyses were performed for the primary efficacy variable IOP using the intent-to-treat (ITT) population with last observation carried forward (LOCF), and the per protocol population with observed cases.
Continuous variables (eg, IOP) were analyzed using analysis of variance (ANOVA). Within-group changes from baseline for continuous variables were analyzed using paired t-tests.
A 2-way ANOVA model with factors for treatment and investigator was used for the analysis of IOP. Comparisons were made between the Combination and each of the 2 monotherapies in a pairwise fashion using contrasts from the ANOVA model, with the same error term. A separate ANOVA model was employed at each hour/visit measurement of IOP. […] Point estimates of the mean treatment differences, as well as 2-sided 95% confidence intervals (CI) of the difference, were provided at each timepoint.

[2] = tested on: patients with glaucoma or ocular hypertension; assay: Clinical study: safety (adverse events, heart rate, blood pressure, visual acuity); type: in vivo
[3] = Clinical study: quantitation of plasma brimonidine and timolol concentrations; type: in vivo, patients; details: for concentration at 1 h: human, plasma, other: ophthalmic solution, 1 hour postdose, read-out: mean±SD plasma timolol concentration

Structure (SMILES): Brc1c(N=C2NCCN2)ccc2nccnc12.O=C(O)C(O)C(O)C(=O)O [Brimonidine, 5-Bromo-6-(2-imidazolidinylideneamino)quinoxaline L-tartrate]
- Mean changes from baseline diurnal IOP [1]: −3.5 to −5.7 mm Hg
- Mean values of diurnal IOP [1]: 17.4 to 21.5 mm Hg

Structure (SMILES): CC(C)(C)NC[C@H](O)COc1nsnc1N1CCOCC1.O=C(O)/C=C\C(=O)O [Timolol]
- Serious adverse events reported ([2]; % of patients): 2.0%
- discontinuation of patients due to adverse events ([2]; % of patients): 3.0%
- allergic conjunctivitis, % of patients ([2]; adverse event through month 3): (0.0%)
- allergic conjunctivitis, number of patients ([2]; adverse event through month 3): 0
- asthenia, % of patients ([2]; adverse event through month 3): (0.5%)
- asthenia, number of patients ([2]; adverse event through month 3): 1
- burning sensation in eye, % of patients ([2]; adverse event through month 3): (12.7%)
- burning sensation in eye, number of patients ([2]; adverse event through month 3): 25
- conjunctival folliculosis, % of patients ([2]; adverse event through month 3): (0.5%)
- conjunctival folliculosis, number of patients ([2]; adverse event through month 3): 1
- conjunctival hyperemia, % of patients ([2]; adverse event through month 3): (5.6%)
- conjunctival hyperemia, number of patients ([2]; adverse event through month 3): 11
- epiphora, % of patients ([2]; adverse event through month 3): (1.5%)
- epiphora, number of patients ([2]; adverse event through month 3): 3
- eye pruritus, % of patients ([2]; adverse event through month 3): (1.5%)
- eye pruritus, number of patients ([2]; adverse event through month 3): 3
- foreign body sensation, % of patients ([2]; adverse event through month 3): (2.5%)
- foreign body sensation, number of patients ([2]; adverse event through month 3): 5
- infection (body as a whole), % of patients ([2]; adverse event through month 3): (4.1%)
- infection (body as a whole), number of patients ([2]; adverse event through month 3): 8
- oral dryness, % of patients ([2]; adverse event through month 3): (0.5%)
- oral dryness, number of patients ([2]; adverse event through month 3): 1
- somnolence, % of patients ([2]; adverse event through month 3): (0.0%)
- somnolence, number of patients ([2]; adverse event through month 3): 0
- stinging sensation eye, % of patients ([2]; adverse event through month 3): (5.6%)
- stinging sensation eye, number of patients ([2]; adverse event through month 3): 11
- visual disturbance, % of patients ([2]; adverse event through month 3): (1.5%)
- visual disturbance, number of patients ([2]; adverse event through month 3): 3
- incidence of eye discharge ([2]; through month 3): 0%
- patients who experienced one or more adverse events, regardless of causality ([2]; through month 3): 50.8%
- Mean changes from baseline diurnal IOP [1]: −4.5 to −6.4 mm Hg
- Mean values of diurnal IOP [1]: 17.5 to 18.9 mm Hg
- concentration at 1 h ([3]; month 3): 0.873 ± 0.516 ng/mL
- concentration at 1 h ([3]; week 2): 0.95 ± 0.709 ng/mL
- plasma timolol concentration in males lower than in females ([3]; month 3): 39%
- plasma timolol concentration in males lower than in females ([3]; week 2): 45%
